System: patients with advanced solid tumors
Experiment: Safety and tolerability (adverse events, NCI CTCAE v4.03), phase I dose-escalation study
Type: in vivo, human
Source text: This was a phase I, open-label, dose-escalation study of single-agent TAK-931. Dose escalation of TAK-931 was cohort based with an adaptive design using Bayesian logistic regression modeling (BLRM) with pharmacokinetic guidance. BLRM also guided MTD estimation from the second dose. Patients were enrolled in one of four dosing schedules (A, B, D, or E; Supplementary Fig. S1) to receive TAK-931. Two additional schedules were planned (C and F) but no patients were enrolled. Schedule A included an initial accelerated escalation phase. TAK-931 was administered once daily for 14 days in 21-day cycles starting at 30 mg, which doubled until a cycle 1 dose-limiting toxicity (DLT) was observed, when 2 patients experienced grade ≥2 treatment-related toxicity, or when maximum geometric mean plasma concentration (Cmax) for the cohort reached or exceeded 800 ng/mL [threshold for off-target adverse effects (hypotension) in animal toxicology studies]; then dose escalation transitioned to modified Fibonacci escalation steps. In schedule B (based on experience with schedule A), patients received TAK-931 once daily or twice daily for 7 days on, 7 days off in a 28-day cycle starting at 60 mg. In schedule D, patients received TAK-931 once daily starting at 20 mg in 21-day cycles; BLRM was not applied but further adjustments were dependent on observed safety, pharmacokinetics, and pharmacodynamics. In schedule E, patients received TAK-931 once daily for 2 days on, 5 days off starting at 100 mg in 21-day cycles. A safety expansion was permitted once MTD had been determined. Prophylactic growth factors were permitted in all schedules to manage severe and/or febrile neutropenia. TAK-931 treatment continued until unacceptable toxicity, disease progression, or patient withdrawal.
DLTs included: cycle 1 grade ≥3 hematologic and non-hematologic events or grade 2 non-hematologic events considered by the investigator to be TAK-931-related, grade 2 ejection fraction decrease, >2 weeks delay in initiating cycle 2 (1 week for schedules D and E), and >50% TAK-931 dose reduction in cycle 1 due to treatment-related adverse events (AEs; see Supplementary Materials and Methods for full DLT criteria). Toxicity was evaluated by NCI Common Terminology Criteria for Adverse Events (version 4.03). Tumor response was measured using the RECIST (version 1.1) ([16]). Serial blood samples for pharmacokinetic analysis were collected during cycle 1 on days 1 and 7 (schedule B), 1 and 8 (schedules A and D), or 1 and 9 (schedule E). Pharmacokinetic parameters were estimated from concentration–time profiles using noncompartmental methods with WinNonlin® Phoenix™ version 8.1 (Certara, Princeton, NJ). pMCM2 was detected semiquantitatively by IHC of histologic sections of formalin-fixed, paraffin-embedded skin and tumor biopsies using anti-pMCM2 (3378-1, Epitomics Inc.; ref. [15]). Quantitative image analysis determined pMCM2 levels as “histologic score nuclei (H-score).” Skin punch biopsies (2–4 mm) were obtained during screening or predose on cycle 1, day 1 and for patients in schedules A, B, and D, postdose on any drug dosing day after 3 consecutive dosing days in cycle 1. A postdose skin biopsy was obtained on day 9 in schedule E. Fresh tumor biopsy pairs were collected predose and postdose on any dosing day after the completion of 3 consecutive dosing days in cycle 1 from patients who received doses considered to have biological effect.
The safety population included patients who received ≥1 dose of TAK-931. The pharmacodynamic-evaluable population comprised patients from the safety population with a baseline and ≥1 additional postbaseline biopsy sample that was suitable for pMCM2 analysis. The pharmacokinetic-evaluable population included patients with sufficient dosing and TAK-931 concentration–time data to estimate pharmacokinetic parameters. […]

[1] = Schedule A (once daily 14 days, 21-day cycles) n = 25
[2] = Schedule B (7 days on, 7 days off, 28-day cycles) n = 24
[3] = Schedule D (continuous once daily) n = 18

Cc1[nH]ncc1-c1cc2nc([C@@H]3CC4CCN3CC4)[nH]c(=O)c2s1 [TAK-931, simurosertib]
Abdominal pain, AE any grade [1]: 2 (8) n (%)
Alopecia, AE any grade [1]: 6 (24) n (%)
Anemia, AE any grade [1]: 6 (24) n (%)
Anemia, grade ≥3 AE [1]: 1 (4) n %
Arthralgia, AE any grade [1]: 3 (12) n (%)
Blood creatinine increased, AE any grade [1]: 3 (12) n (%)
Constipation, AE any grade [1]: 2 (8) n (%)
Cough, AE any grade [1]: 3 (12) n (%)
Decreased appetite, AE any grade [1]: 7 (28) n (%)
Decreased appetite, grade ≥3 AE [1]: 2 (8) n %
Diarrhea, AE any grade [1]: 7 (28) n (%)
Dry skin, AE any grade [1]: 1 (4) n (%)
Edema peripheral, AE any grade [1]: 4 (16) n (%)
Electrocardiogram QT prolonged, AE any grade [1]: 3 (12) n (%)
Fall, AE any grade [1]: 0 (0) n (%)
Fatigue, AE any grade [1]: 2 (8) n (%)
Febrile neutropenia, AE any grade [1]: 1 (4) n (%)
Febrile neutropenia, grade ≥3 AE [1]: 1 (4) n %
Gamma-glutamyltransferase increased, AE any grade [1]: 0 (0) n (%)
Gamma-glutamyltransferase increased, grade ≥3 AE [1]: 0 (0) n %
Hypoalbuminemia, AE any grade [1]: 4 (16) n (%)
Hypoalbuminemia, grade ≥3 AE [1]: 0 (0) n %
Hypophosphatemia, grade ≥3 AE [1]: 1 (4) n %
Hypotension, AE any grade [1]: 2 (8) n (%)
Leukopenia, AE any grade [1]: 5 (20) n (%)
Leukopenia, grade ≥3 AE [1]: 5 (20) n %
Lymphocyte count decreased, AE any grade [1]: 3 (12) n (%)
Lymphocyte count decreased, grade ≥3 AE [1]: 1 (4) n %
Lymphopenia, AE any grade [1]: 2 (8) n (%)
Malaise, AE any grade [1]: 5 (20) n (%)
Nasopharyngitis, AE any grade [1]: 2 (8) n (%)
Nausea, AE any grade [1]: 15 (60) n (%)
Neutropenia, AE any grade [1]: 12 (48) n (%)
Neutropenia, grade ≥3 AE [1]: 11 (44) n %
Orthostatic hypotension, AE any grade [1]: 0 (0) n (%)
Platelet count decreased, AE any grade [1]: 2 (8) n (%)
Pruritus, AE any grade [1]: 0 (0) n (%)
Pyrexia, AE any grade [1]: 5 (20) n (%)
Rash popular, AE any grade [1]: 0 (0) n (%)
Stomatitis, AE any grade [1]: 0 (0) n (%)
Thrombocytopenia, AE any grade [1]: 1 (4) n (%)
Tumor pain, AE any grade [1]: 3 (12) n (%)
Vomiting, AE any grade [1]: 7 (28) n (%)
White blood cell count decreased, AE any grade [1]: 8 (32) n (%)
White blood cell count decreased, grade ≥3 AE [1]: 3 (12) n %
Abdominal pain, AE any grade [2]: 3 (13) n (%)
Alopecia, AE any grade [2]: 13 (54) n (%)
Anemia, AE any grade [2]: 4 (17) n (%)
Anemia, grade ≥3 AE [2]: 3 (13) n %
Arthralgia, AE any grade [2]: 1 (4) n (%)
Blood creatinine increased, AE any grade [2]: 3 (13) n (%)
Constipation, AE any grade [2]: 5 (21) n (%)
Cough, AE any grade [2]: 0 (0) n (%)
Decreased appetite, AE any grade [2]: 5 (21) n (%)
Decreased appetite, grade ≥3 AE [2]: 0 (0) n %
Diarrhea, AE any grade [2]: 4 (17) n (%)
Dry skin, AE any grade [2]: 1 (4) n (%)
Edema peripheral, AE any grade [2]: 1 (4) n (%)
Electrocardiogram QT prolonged, AE any grade [2]: 0 (0) n (%)
Fall, AE any grade [2]: 1 (4) n (%)
Fatigue, AE any grade [2]: 5 (21) n (%)
Febrile neutropenia, AE any grade [2]: 3 (13) n (%)
Febrile neutropenia, grade ≥3 AE [2]: 3 (13) n %
Gamma-glutamyltransferase increased, AE any grade [2]: 3 (13) n (%)
Gamma-glutamyltransferase increased, grade ≥3 AE [2]: 2 (8) n %
Hypoalbuminemia, AE any grade [2]: 2 (8) n (%)
Hypoalbuminemia, grade ≥3 AE [2]: 2 (8) n %
Hypophosphatemia, grade ≥3 AE [2]: 1 (4) n %
Hypotension, AE any grade [2]: 4 (17) n (%)
Leukopenia, AE any grade [2]: 13 (54) n (%)
Leukopenia, grade ≥3 AE [2]: 6 (25) n %
Lymphocyte count decreased, AE any grade [2]: 0 (0) n (%)
Lymphocyte count decreased, grade ≥3 AE [2]: 0 (0) n %
Lymphopenia, AE any grade [2]: 3 (13) n (%)
Malaise, AE any grade [2]: 1 (4) n (%)
Nasopharyngitis, AE any grade [2]: 3 (13) n (%)
Nausea, AE any grade [2]: 21 (88) n (%)
Neutropenia, AE any grade [2]: 19 (79) n (%)
Neutropenia, grade ≥3 AE [2]: 15 (63) n %
Orthostatic hypotension, AE any grade [2]: 1 (4) n (%)
Platelet count decreased, AE any grade [2]: 1 (4) n (%)
Pruritus, AE any grade [2]: 3 (13) n (%)
Pyrexia, AE any grade [2]: 1 (4) n (%)
Rash popular, AE any grade [2]: 3 (13) n (%)
Stomatitis, AE any grade [2]: 6 (25) n (%)
Thrombocytopenia, AE any grade [2]: 4 (17) n (%)
Tumor pain, AE any grade [2]: 1 (4) n (%)
Vomiting, AE any grade [2]: 13 (54) n (%)
White blood cell count decreased, AE any grade [2]: 5 (21) n (%)
White blood cell count decreased, grade ≥3 AE [2]: 3 (13) n %
Abdominal pain, AE any grade [3]: 0 (0) n (%)
Alopecia, AE any grade [3]: 3 (17) n (%)
Anemia, AE any grade [3]: 3 (17) n (%)
Anemia, grade ≥3 AE [3]: 1 (6) n %
Arthralgia, AE any grade [3]: 1 (6) n (%)
Blood creatinine increased, AE any grade [3]: 1 (6) n (%)
Constipation, AE any grade [3]: 2 (11) n (%)
Cough, AE any grade [3]: 0 (0) n (%)
Decreased appetite, AE any grade [3]: 6 (33) n (%)
Decreased appetite, grade ≥3 AE [3]: 1 (6) n %
Diarrhea, AE any grade [3]: 1 (6) n (%)
Dry skin, AE any grade [3]: 1 (6) n (%)
Edema peripheral, AE any grade [3]: 2 (11) n (%)
Electrocardiogram QT prolonged, AE any grade [3]: 0 (0) n (%)
Fall, AE any grade [3]: 1 (6) n (%)
Fatigue, AE any grade [3]: 3 (17) n (%)
Febrile neutropenia, AE any grade [3]: 0 (0) n (%)
Febrile neutropenia, grade ≥3 AE [3]: 0 (0) n %
Gamma-glutamyltransferase increased, AE any grade [3]: 0 (0) n (%)
Gamma-glutamyltransferase increased, grade ≥3 AE [3]: 0 (0) n %
Hypoalbuminemia, AE any grade [3]: 0 (0) n (%)
Hypoalbuminemia, grade ≥3 AE [3]: 0 (0) n %
Hypophosphatemia, grade ≥3 AE [3]: 0 (0) n %
Hypotension, AE any grade [3]: 0 (0) n (%)
Leukopenia, AE any grade [3]: 0 (0) n (%)
Leukopenia, grade ≥3 AE [3]: 0 (0) n %
Lymphocyte count decreased, AE any grade [3]: 0 (0) n (%)
Lymphocyte count decreased, grade ≥3 AE [3]: 0 (0) n %
Lymphopenia, AE any grade [3]: 0 (0) n (%)
Malaise, AE any grade [3]: 3 (17) n (%)
Nasopharyngitis, AE any grade [3]: 1 (6) n (%)
Nausea, AE any grade [3]: 5 (28) n (%)
Neutropenia, AE any grade [3]: 6 (33) n (%)
Neutropenia, grade ≥3 AE [3]: 3 (17) n %
Orthostatic hypotension, AE any grade [3]: 0 (0) n (%)
Platelet count decreased, AE any grade [3]: 2 (11) n (%)
Pruritus, AE any grade [3]: 1 (6) n (%)
Pyrexia, AE any grade [3]: 2 (11) n (%)

Reference: article PMC10035389, “Safety, Tolerability, and Pharmacokinetics of TAK-931, a Cell Division Cycle 7 Inhibitor, in Patients with Advanced Solid Tumors: A Phase I First-in-Human Study” (Cancer Research Communications, 2022)
